Test results published in article PMC9000482, “Inhibition of Aldose Reductase by Ginsenoside Derivatives via a Specific Structure Activity Relationship with Kinetics Mechanism and Molecular Docking Study” (Molecules, 2022).
Where two headings read alike, the source gives them in different places. Marks after values point to notes of the source that are not given here.

How the values were obtained:
[1] = molecular target: T1, rat lens aldose reductase (RLAR) (Rattus norvegicus, UniProt P07943); experiment: RLAR inhibitory activity assay (rat lens homogenate, DL-glyceraldehyde substrate); type: biochemical
T1 construct: from tissue; host or cells: lens of Sprague-Dawley rats (supernatant of homogenate)
Experimental: A rat lens homogenate was prepared with minor modifications according to the method reported by Hayman et al.. Briefly, the lenses were removed from the eyes of Sprague-Dawley rats weighing 250–280 g. They were homogenized in sodium phosphate buffer (pH 6.2) that was prepared with dibasic sodium phosphate (Na2HPO4∙H2O, 0.66 g) and monobasic sodium phosphate (NaH2PO4∙H2O, 1.27 g) in 100 mL of double-distilled H2O. The homogenate was clarified by centrifugation at 10,000 rpm at 4 °C for 20 min and the resultant supernatant was frozen until use. A crude AR homogenate with a specific activity of 6.5 U/mg was used in all enzyme inhibition evaluations. The reaction solution consisted of 620 µL of 100 mM sodium phosphate buffer (pH 6.2), 90 µL of AR homogenate, 90 µL of 1.6 mM NADPH, and 9 µL of sample, while the substrate included 90 µL of 50 mM DL-glyceraldehyde. […] AR activity was determined by measuring the decrease in NADPH absorption at 340 nm over a 4 min period on an Ultrospec®2100pro UV/Visible spectrophotometer. SWIFT II Applications software (Amersham Biosciences, NJ, USA) was used for all data analyses. The inhibition percentage (%) was calculated as follows in Equation (1):[1 − (∆Asample/min − ∆Ablank/min)/(∆Acontrol/min − ∆Ablank/min)] × 100(1) in which ∆Asample/min represents the test sample and substrate’s reduction in absorbance over 4 min, and ∆A control/min represents the same reduction in absorbance, but with 100% DMSO (dimethyl sulfoxide) rather than the test sample.

[2] = molecular target: T2, human recombinant aldose reductase (HRAR) (Homo sapiens, UniProt P15121); experiment: Enzyme kinetics of HRAR inhibition (Lineweaver-Burk and Dixon plots); type: biochemical; details: for HRAR Mode of Inhibition: Lineweaver-Burk plot
T2 construct: purchased Wako Chemicals (Osaka, Japan)
Experimental: (§1) Enzyme inhibition with different concentrations ([…]) was assessed by monitoring the effects of different concentrations of the substrate. The following concentrations of test ginsenosides were used in the RLAR kinetics analysis: 0, 2, 10, and 50 µM for protopanaxadiol; 0, 0.5, 2.5, and 10 µM for (20S) ginsenoside Rg3; 0, 0.5, 2.5, and 10 µM for (20R) ginsenoside Rg3; 0, 0.1, 0.5, and 2.5 µM for ginsenoside Rh2; 0, 2, 10, and 50 µM for protopanaxatriol; 0, 0.8, 4, and 20 µM for ginsenoside Rf; 0, 0.8, 4, and 20 µM for (20S) ginsenoside Rg2, and 0, 0.5, 2.5, and 10 µM for ginsenoside Rh1. Using Lineweaver-Burk double reciprocal plots, the inhibition type was determined using various concentrations of DL-glyceraldehyde (5, 10, and 20 mM) for HRAR as a substrate in the presence of different concentrations of the active test ginsenosides. The concentrations of test ginsenosides in the HRAR kinetics analysis were as follows: 0, 0.1, 0.5, and 2.5 µM for protopanaxadiol; 0, 0.5, 2, and 10 µM for (20S) ginsenoside Rg3; 0, 1, 5, and 20 µM for (20R) ginsenoside Rg3; 0, 0.5, 2.5, and 10 µM for ginsenoside Rh2; 0, 0.1, 0.5, and 2.5 µM for compound K; 0, 1, 5, and 10 µM for protopanaxatriol; 0, 0.5, 4, and 20 µM for (20R) ginsenoside Rg2, and 0, 0.2, 2, and 5 µM for ginsenoside Rh1. The Dixon plot is a graphical method [1/enzyme velocity (1/V)] against inhibitor concentration [I] used to determine the type of enzyme inhibition; it was used to identify the dissociation or inhibition constant (Ki) for the enzyme-inhibitor complex. Dixon plots (single reciprocal plots) for RLAR and HRAR inhibition were obtained in the presence of 100, 50, and 10 mM RLAR, and 20, 10, and 5 mM HRAR DL-glyceraldehyde substrate. Thus, the type of enzyme inhibition was determined by interpreting the Lineweaver-Burk plots, and the inhibition constants (Ki) were determined by interpreting the Dixon plots.

[3] = molecular target: T2, human recombinant aldose reductase (HRAR); experiment: HRAR inhibition assay (DL-glyceraldehyde substrate); type: biochemical
Experimental: HRAR inhibition was studied according to Nishimura et al.. AR action was studied by measuring the reduction in NADPH absorption at 340 nm over a period of 1 min on a UV/visible spectrophotometer (Ultrospec®2100pro, Biochrom, Holliston, MA, USA). For HRAR inhibition, the HRAR enzyme (0.4 units), was used in all enzyme inhibition evaluations. […] The inhibition percentage (%) was measured as designated in the RLAR assay. The DA sample/min value characterizes the decrease in absorbance for 1 min with the test samples and substrate. The ability of each sample to inhibit HRAR was observed as an IC50 value (µM) and measured from the log-dose inhibition curve.

[4] = test system: sorbitol accumulation in rat lens; experiment: Lens culture and intracellular sorbitol measurement (ex vivo); type: cell-based, Sprague-Dawley rats; details: 25 mM glucose, 6 days, sample 5 μg/mL, mean ± SD (n = 3); for inhibition at 5 µg/mL: 144 h
[5] = molecular target: T1, rat lens aldose reductase (RLAR); experiment: Enzyme kinetics of RLAR inhibition (Lineweaver-Burk and Dixon plots); type: biochemical; details: for RLAR Mode of Inhibition: Lineweaver-Burk plot
Experimental: as §1

[6] = rat lens homogenate, substrate DL-glyceraldehyde, mean ± S.E.M. of triplicate experiments, read-out: RLAR IC50
[7] = substrate DL-glyceraldehyde, mean ± S.E.M. of triplicate experiments, read-out: HRAR IC50
[8] = Dixon plots, read-out: RLAR Kic (binding constant of inhibitor with free enzyme)
[9] = Dixon plots, single inhibition constant, read-out: HRAR Ki

Structure (SMILES) | IC50 [1] [µM] | Ki [2] [µM] | HRAR Mode of Inhibition [2] | IC50 [3] [µM] | Sorbitol Content (mg)/Lens Wet Weight (g) [4] | Ki [5] [µM] | RLAR Mode of Inhibition [5] | IC50 [1, 6] [µM] | IC50 [3, 7] [µM] | inhibition at 5 µg/mL ([4]; Rattus norvegicus) [%] | RLAR Kiu (binding constant of inhibitor with enzyme-substrate complex) ([5]; Dixon plots) [µM] | Ki [5, 8] [µM] | Ki [2, 9] [µM] | other results
CC(C)=CCC[C@](C)(O)[C@H]1CC[C@]2(C)[C@@H]1[C@H](O)C[C@@H]1[C@@]3(C)CC[C@H](O)C(C)(C)[C@@H]3[C@@H](O[C@@H]3O[C@H](CO)[C@@H](O)[C@H](O)[C@H]3O)C[C@]12C [Ginsenoside Rh1] | 7.28 ± 0.27 | 3.4 | Mixed type | 4.66 ± 0.34 | 0.10 ± 0.01 ^a mg/g | 5.39 | Competitive type |  |  |  |  |  |  | HRAR Kiu (binding constant of inhibitor with enzyme-substrate complex) ([2]; Dixon plots): 8.31 µM; inhibition at 5 µg/mL [4]: 94.2 ± 4.71%; RLAR Mode of Inhibition ([5]; listed as Rh1): competitive
CC(C)=CCCC(C)(O)C1CCC2(C)C1C(O)CC1C3(C)CCC(O)C(C)(C)C3C(OC3OC(CO)C(O)C(O)C3OC3OC(C)C(O)C(O)C3O)CC12C [(20S) ginsenoside Rg2] |  |  |  |  | 0.73 ± 0.01 ^c mg/g |  | Mixed type | 14.4 ± 0.99 | 15.7 ± 1.05 | 57.5 ± 5.11 | 17.04 | 10.8 |  | 
CC(C)=CCCC(C)(O)C1CCC2(C)C1C(O)CC1C3(C)CCC(O)C(C)(C)C3C(OC3OC(CO)C(O)C(O)C3OC3OC(C)C(O)C(O)C3O)CC12C [(20R) ginsenoside Rg2] |  |  | Non-competitive |  | 0.83 ± 0.01 ^c mg/g |  |  | 29.4 ± 2.33 | 13.7 ± 0.99 |  |  |  | 11.7 | Inhibition (%) of sorbitol accumulation in rat lens [4]: 51.74 ± 2.99 ^c %
CC(C)=CCC[C@](C)(O)[C@H]1CC[C@]2(C)[C@@H]1[C@H](O)C[C@@H]1[C@@]3(C)CC[C@H](O)C(C)(C)[C@@H]3[C@@H](O)C[C@]12C [Protopanaxatriol] |  |  | Competitive type |  | 0.09 ± 0.01 ^a mg/g |  | Non-competitive type | 27.9 ± 1.19 | 1.43 ± 0.14 | 94.8 ± 3.46 |  |  | 2.61 | HRAR Mode of Inhibition ([2]; listed as protopanaxatriol): competitive; Ki ([5]; Dixon plots, single inhibition constant, read-out: RLAR Ki): 28.9 µM; RLAR Mode of Inhibition ([5]; listed as protopanaxatriol): non-competitive
CC(C)=CCC[C@](C)(O)C1CC[C@]2(C)[C@@H]1[C@H](O)CC1[C@@]3(C)CC[C@H](O[C@@H]4O[C@H](CO)[C@@H](O)[C@H](O)[C@H]4O[C@@H]4O[C@H](CO)[C@@H](O)[C@H](O)[C@H]4O)C(C)(C)C3CC[C@]12C (stereo partly drawn) [(20S) ginsenoside Rg3] | 1.25 ± 0.28 | 8.06 | Competitive type | 9.92 ± 0.56 | 0.37 ± 0.01 ^b mg/g | 1.97 | Competitive type |  |  | 78.5 ± 4.27 |  |  |  | RLAR Mode of Inhibition ([5]; listed as (20S) Rg3): competitive
CC(C)=CCC[C@](C)(O[C@@H]1O[C@H](CO)[C@@H](O)[C@H](O)[C@H]1O)C1CC[C@]2(C)[C@@H]1[C@H](O)CC1[C@@]3(C)CC[C@H](O)C(C)(C)C3CC[C@]12C (stereo partly shown) [Compound K] |  |  | Competitive type |  | 0.46 ± 0.01 ^b mg/g |  |  | 41.5 ± 3.99 | 2.23 ± 0.54 | 73.2 ± 8.11 |  |  | 1.59 | HRAR Mode of Inhibition ([2]; listed as compound K): competitive
CC(C)=CCC[C@](C)(O)C1CC[C@]2(C)[C@@H]1[C@H](O)CC1[C@@]3(C)CC[C@H](O)C(C)(C)C3CC[C@]12C (stereo partly shown) [Protopanaxadiol] |  |  | Competitive type |  | 0.06 ± 0.01 ^a mg/g |  | Mixed type | 21.4 ± 2.45 | 0.36 ± 0.1 | 96.5 ± 2.91 | 37.39 | 18.8 | 0.72 | HRAR Mode of Inhibition ([2]; listed as protopanaxadiol): competitive
CC(C)=CCC[C@](C)(O)[C@H]1CC[C@]2(C)[C@@H]1[C@H](O)C[C@@H]1[C@@]3(C)CC[C@H](O[C@@H]4O[C@H](CO)[C@@H](O)[C@H](O)[C@H]4O)C(C)(C)[C@@H]3CC[C@]12C [Ginsenoside Rh2] | 0.67 ± 0.01 | 3.63 | Mixed type | 7.44 ± 0.55 | 0.05 ± 0.01 ^a mg/g | 0.43 | Competitive type |  |  |  |  |  |  | HRAR Kiu (binding constant of inhibitor with enzyme-substrate complex) ([2]; Dixon plots): 9.22 µM; inhibition at 5 µg/mL [4]: 97.1 ± 5.41%; RLAR Mode of Inhibition ([5]; listed as Rh2): competitive
CC(C)=CCC[C@](C)(O)[C@H]1CC[C@]2(C)[C@@H]1[C@H](O)C[C@@H]1[C@@]3(C)CC[C@H](O)C(C)(C)[C@@H]3[C@@H](O[C@@H]3O[C@H](CO)[C@@H](O)[C@H](O)[C@H]3O[C@@H]3O[C@H](CO)[C@@H](O)[C@H](O)[C@H]3O)C[C@]12C [Ginsenoside Rf] |  |  |  |  | 0.28 ± 0.01 ^a mg/g |  | Mixed type | 11.3 ± 1.49 | 19.5 ± 1.55 | 83.7 ± 4.88 | 18.60 | 11.2 |  | 
